Data published in publication PMC8070033, “Bimetallic Iron–Palladium Catalyst System as a Lewis-Acid for the Synthesis of Novel Pharmacophores Based Indole Scaffold as Anticancer Agents” (Molecules, 2021).

Tests used:
Human fibroblast BJ = assay: Cytotoxicity MTT assay, BJ human fibroblast cells; type: cell-based; conditions: 48 hrs, ± SD from three independent experiments, NA: did not show activity at 30 µM
Protocol: (§1) Cytotoxicity against BJ Human fibroblast cells, and anti-cancer activity against PC3, HeLa and MCF-7 cancer cell lines were evaluated by following the procedure as described in the literature (Supplementary Materials).
The Biological Activity Assays Protocols […]
(§2) of positive control – mean of O.D of negative control)*100). […]
(§3) Standard drug used in the MTT assay was doxorubicin. […]
B. Cytotoxicity assay Protocol (BJ Human fibroblast cells) […]
standard MTT (3-[4, 5-dimethylthiazole-2-yl]-2, 5-diphenyl-tetrazolium bromide) colorimetric assay (Price & J. McMillan1, 1990). For this purpose, BJ Human fibroblast cells were cultured in Dulbecco’s Modified Eagle Medium, supplemented with 10% of fetal bovine serum (FBS), 100 IU/ml of penicillin and 100 µg/ml of streptomycin and 2 mM L‐glutamine in 75 cm2 flasks, and kept in 5% CO2 incubator at 37 °C (Mannerström, Toimela, Sarkanen & Heinonen, 2017).
Exponentially growing cells were harvested, counted with haemocytometer and diluted with a particular medium. Cell culture with the concentration of 6x10^4cells/ml was prepared and introduced (100 µL/well) into 96-well plates. After overnight incubation, medium was removed and 200 µL of fresh medium was added with different concentrations of compounds (1 -30µM). After 48 hrs, 200 µL MTT (0.5 mg/ml) was added to each well and incubated further for 3 hrs.
Subsequently, 100µL of DMSO was added to each well. The extent of MTT reduction to formazan within cells was calculated by measuring the absorbance at 550 nm, using a micro plate reader (Spectra Max plus, Molecular Devices, CA, USA). The cytotoxicity was recorded as concentra tion causing 50% growth inhibition (IC50) for BJ cells. The percent inhibition was calculated by using the following […]
Following concentrations were used to calculate (in case) of IC50: […]

[1] = system: HeLa cells (Cervical Cancer); assay: HeLa cells (Cervical Cancer) MTT assay; type: cell-based; conditions: ± SD from three independent experiments, NA: did not show anticancer activity at 30 µM
Protocol: (§4) Cytotoxicity against BJ Human fibroblast cells, and anti-cancer activity against PC3, HeLa and MCF-7 cancer cell lines were evaluated by following the procedure as described in the literature (Supplementary Materials). […]
(§5) of positive control – mean of O.D of negative control)*100).
(§6) The results (% inhibition) were processed by using Soft- Max Pro software (Molecular Device, USA).
(§7) Following concentrations were used to calculate (in case) of IC50:
as §3
C. HeLa cells (Cervical Cancer) assay
Cytotoxic activity of compounds was evaluated in 96-well flat-bottomed micro plates by using the standard MTT (3-[4, 5-dimethylthiazole-2-yl]-2, 5-diphenyl-tetrazolium bromide) colorimetric assay40.
For this purpose, HeLa cells (Cervical Cancer) were cultured in Minimum Essential Medium Eagle, supplemented with 5% of fetal bovine serum (FBS) , 100 IU/ml of penicillin and 100 µg/ml of streptomycin in 75 cm2 flasks, and kept in 5% CO2 incubator at 37 °C. Exponentially growing cells were harvested, counted with haemocytometer and diluted with a particular medium. Cell culture with the concentration of 6x10^4 cells/ml was prepared and introduced (100 µL/well) into 96 -well plates. After overnight incubation, medium was removed and 200 µL of fresh medium was added with different concentrations of compounds (1-30µM). After 48 hrs, 200 µL MTT (0.5 mg/ml) was added to each well and incubated further for 4 hrs. Subsequently, 100µL of DMSO was added to each well. The extent of MTT reduction to formazan within cells was calculated by measuring the absorbance at 570 nm, using a micro plate reader (Spectra Max plus, Molecular Devices, CA, USA). The cytotoxicity was recorded as concentration causing 50% growth inhibition (IC 50) for HeLa. The percent inhibition was calculated by using the following formula: […]
The results (% inhibition) were processed by using Soft - Max Pro software (Molecular Device, USA).
(§8) 1. Mosmann T. Rapid colorimetric assay for cellular growth and survival: application to proliferation and cytotoxicity assays. J Immunol Meth 1983, 65, 55–63. […]

[2] = system: PC3 cells (Prostate Cancer); assay: PC3 cells (Prostate Cancer) MTT assay; type: cell-based; conditions: for IC50: MTT assay, 48 hrs, ± SD from three independent experiments, NA: did not show anticancer activity at 30 µM; for anticancer activity against PC3 prostate cancer cell line (in words): in comparison to doxorubicin
Protocol: as §1
The Biological Activity Assays Protocols
A. PC3 cells (Prostate Cancer) assay […]
For this purpose, PC3 cells (Prostate Cancer) were cultured in Dulbecco’s Modified Eagle Medium, supplemented with 5% of fetal bovine serum (FBS), 100 IU/ml of penicillin and 100 µg/ml of streptomycin in 75 cm2 flasks, and kept in 5% CO2 incubator at 37 °C. Exponentially growing cells were harvested, counted with haemocytometer and diluted with a particular medium. Cell culture with the concentration of 1x10^5 cells/ml was prepared and introduced (100 µL/well) into 96-well plates. After overnight incubation, medium was removed and 200 µL of fresh medium was added with different concentrations of compounds (1-30µM). After 48 hrs, 200 µL MTT (0.5 mg/ml) was added to each well and incubated further for 4 hrs. Subsequently, 100µL of DMSO was added to each well. The extent of MTT reduction to formazan within cells was calculated by measuring the absorbance at 570 nm, using a micro plate reader (Spectra Max plus, Molecular Devices, CA, USA). The cytotoxicity was recorded as concentration causing 50% growth inhibition (IC50) for PC3 cells. The percent inhibition was calculated by using the following formula: […]
as §5, §6
Standard drug used in the MTT assay was doxorubicin.
as §8

[3] = system: MCF-7 breast cancer cell line; assay: MCF-7 breast cancer cell line MTT assay; type: cell-based; conditions: Homo sapiens, MCF7, 48 h, MTT assay, 48 hours; ± SD from three independent experiments; NA: did not show anticancer activity at 30 µM
Protocol: as §4, §2, §7, §3
D. MCF-7 breast cancer cell line assay.
MTT assay is a rapid and quantitative assay capable of measuring the surviving or proliferating cells.
It is based on the reduction of tetrazolium salt MTT (3-(4,5-dimethylthiazol-yl)-2,5-diphenyl tetrazolium bromide) by various dehydrogenase enzymes present in living cells. The tetrazolium ring present in MTT is cleaved in active mitochondria, which results in production of purple colored formazan crystals. These crystals are dissolved in DMSO and optical density of the color produced is taken by spectrophotometer (ELISA reader), with high efficiency and accuracy.
This assay was optimized and slightly modified according to our cell lines, i.e. MCF-7 breast cancer cell […]
1. MCF-7 cell line were cultured in Dulbecco’s modified Eagle medium (containing 10% fetal bovine serum) in 75 cc flasks, and kept in 5% CO 2 incubator at 37 °C.
2. Upon confluency, cells were harvested and plated in 96-well tissue culture treated flat bottom plates (seeding density 8,000 cells/well for MCF-7) in 100 µL medium.
3. Next day, compounds were added in triplicate at 50 µM concentration, and incubated for 48 hours. For natural extracts, the concentration was 50 µg/mL.
4. After 48 hrs incubation, the compounds were removed and 200 µL MTT at 0.5 mg/mL was added to each well and incubated at 37 °C for 3 hours.
5. Formazan crystals, formed by reduction of MTT were dissolved in 100 µL DMSO and absorbance was taken at 570 nm using micro-plate reader (Spectra Max plus, Molecular […]
6. The percent inhibition or decrease in viable cells was calculated by following formula:
% Inhibition = 100 - (mean of O.D. of test compound - mean of O.D. of negative control) / (mean of O.D. of positive control - mean of O.D. of negative control) x 100) […]
Twenty (20) mM stock concentration of compounds were diluted to working concentration of 50 µM, and then further serial dilutions were made in order to get less than 50% inhibition.
The IC50 was then calculated by using EZ-fit5 software.

melting point [°C] | IC50 ([1]; Homo sapiens, HeLa, 48 h) [µM] | IC50 ([2]; Homo sapiens, PC-3, 48 h) [µM] | IC50 [2] [µM] | IC50 [3] [µM] | IC50 ([1]; 48 hrs) [µM] | IC50 ([1]; 48 hrs, listed as doxorubicin) [µM] | IC50 ([2]; listed as doxorubicin) [µM] | Compound | IC50 (Human fibroblast BJ) [µM] | anticancer activity against PC3 prostate cancer cell line (in words) [2]
162 to 163 | 11.1 ± 0.6 | 16.3 ± 1.6 |  |  |  |  |  | COc1cccc(C(=O)CC(c2cc3ccccc3o2)c2c[nH]c3ccccc23)c1 (stereo not shown) [Compound 3l, 3-(Benzofuran-2-yl)-3-(1H-indol-3-yl)-1-(3-methoxyphenyl)propan-1-one] | > 30 | 
159 to 160 | 12.4 ± 0.2 | 20.4 ± 0.4 |  |  |  |  |  | O=C(CC(c1cc2ccccc2s1)c1c[nH]c2ccccc12)c1ccccc1 (stereo not shown) [Compound 3n, 3-(Benzo[b]thiophen-2-yl)-3-(1H-indol-3-yl)-1-phenylpropan-1-one] | > 50 | 
150 to 151 | 13.8 ± 0.3 | 29.7 ± 0.1 |  |  |  |  |  | O=C(CC(c1cc2ccccc2s1)c1c[nH]c2ccccc12)c1ccc(Cl)cc1 (stereo not shown) [Compound 3o, 3-(Benzo[b]thiophen-2-yl)-1-(4-chlorophenyl)-3-(1H-indol-3-yl)propan-1-one] | > 50 | 
 | 12.7 ± 0.1 | 27.6 ± 0.1 |  |  |  |  |  | O=C(CC(c1cc2ccccc2s1)c1c[nH]c2ccccc12)c1ccc(F)cc1 (stereo not shown) [Compound 3p, 3-(Benzo[b]thiophen-2-yl)-1-(4-fluorophenyl)-3-(1H-indol-3-yl)propan-1-one] | > 50 | 
165 to 166 | 18.8 ± 0.2 | 18 ± 0.3 |  |  |  |  |  | O=C(CC(c1cc2ccccc2s1)c1c[nH]c2ccccc12)c1ccc(C(F)(F)F)cc1 (stereo not shown) [Compound 3q, 3-(Benzo[b]thiophen-2-yl)-3-(1H-indol-3-yl)-1-(4-(trifluoromethyl)phenyl)propan-1-one] | > 50 | 
67 to 68 | 12.4 ± 0.2 | 20.4 ± 0.4 |  |  |  |  |  | COc1ccccc1C(=O)CC(c1cc2ccccc2o1)c1c[nH]c2ccccc12 (stereo not shown) [Compound 3r, 3-(Benzofuran-2-yl)-3-(1H-indol-3-yl)-1-(2-methoxyphenyl)propan-1-one] |  | inactive
 |  |  | 1.9 ± 0.4 | 0.79 ± 0.05 | 0.9 ± 0.14 | 1.9 ± 0.4 | 0.9 ± 0.14 | COc1cccc2c1C(=O)c1c(O)c3c(c(O)c1C2=O)C[C@@](O)(C(=O)CO)C[C@@H]3O[C@H]1C[C@H](N)[C@H](O)[C@H](C)O1 [Doxorubicin, doxorubicin, reference compound] |  | 

Continued, compound first:

Compound | melting point [°C] | IC50 ([1]; Homo sapiens, HeLa, 48 h) [µM] | IC50 ([2]; Homo sapiens, PC-3, 48 h) [µM] | IC50 [2] [µM] | IC50 [3] [µM] | IC50 ([1]; 48 hrs) [µM] | IC50 ([1]; 48 hrs, listed as doxorubicin) [µM] | IC50 ([2]; listed as doxorubicin) [µM] | IC50 (Human fibroblast BJ) [µM] | anticancer activity against PC3 prostate cancer cell line (in words) [2]
O=C(CC(c1cc2ccccc2o1)c1c[nH]c2ccccc12)c1ccc(Br)cc1 (stereo not shown) [Compound 3d, 3-(Benzofuran-2-yl)-1-(4-bromophenyl)-3-(1H-indol-3-yl)propan-1-one] | 108 to 109 | 12.6 ± 0.4 | 26.3 ± 0.8 |  |  |  |  |  | > 30 | 
O=C(CC(c1cc2ccccc2o1)c1c[nH]c2cc(F)ccc12)c1ccc(Br)cc1 (stereo not shown) [Compound 3e, 3-(Benzofuran-2-yl)-1-(4-bromophenyl)-3-(6-fluoro-1H-indol-3-yl)propan-1-one] | 123 to 124 | 13.6 ± 0.4 | 7.8 ± 0.4 |  |  |  |  |  | > 30 | 
O=C(CC(c1cc2ccccc2o1)c1c[nH]c2cc(F)ccc12)c1ccc(Cl)cc1 (stereo not shown) [Compound 3g, 3-(Benzofuran-2-yl)-1-(4-chlorophenyl)-3-(6-fluoro-1H-indol-3-yl)propan-1-one] | 112 to 113 | 14.7 ± 1.1 | 22 ± 1.3 | 20 ± 1.3 |  |  |  |  | > 30 | 
O=C(CC(c1cc2ccccc2s1)c1c[nH]c2ccccc12)c1ccc(Br)cc1 (stereo not shown) [Compound 3h, 3-(Benzo[b]thiophen-2-yl)-1-(4-bromophenyl)-3-(1H-indol-3-yl)propan-1-one] | 121 to 122 |  | 29.7 ± 0.4 |  |  |  |  |  | > 30 | 
O=C(CC(c1cc2ccccc2o1)c1c[nH]c2cc(F)ccc12)c1ccccc1[N+](=O)[O-] (stereo not shown) [Compound 3i, 3-(Benzofuran-2-yl)-3-(6-fluoro-1H-indol-3-yl)-1-(2-nitrophenyl)propan-1-one] | 139 to 140 | 15.2 ± 0.6 |  |  |  |  |  |  |  | complete loss of anticancer activity
O=C(CC(c1cc2ccccc2o1)c1c[nH]c2ccc(Br)cc12)c1ccccc1[N+](=O)[O-] (stereo not shown) [Compound 3j, 3-(Benzofuran-2-yl)-3-(5-bromo-1H-indol-3-yl)-1-(2-nitrophenyl)propan-1-one] | 173 to 174 | 17.3 ± 0.7 | 16 ± 0.1 |  |  |  |  |  |  | 
O=C(CC(c1cc2ccccc2o1)c1c[nH]c2ccccc12)c1ccccc1[N+](=O)[O-] (stereo not shown) [Compound 3k, 3-(Benzofuran-2-yl)-3-(1H-indol-3-yl)-1-(2-nitrophenyl)propan-1-one] | 154 to 155 | 14.9 ± 0.6 |  |  |  |  |  |  |  | 
